US8133849B2, “Herbicidal compounds” (Syngenta Limited, priority 2007, dated 2012)

Key:
Assay in all cases: Example B2 herbicidal action, post-emergence, pots in glasshouse, damage score 0-10
Type in all cases: in vivo
Details in all cases: application post-emergence, rate 1000 g/ha, evaluated after 13 days
[1] = system: Echinochloa crus-galli
Method: (§1) Seeds of a variety of test species were sown in standard soil in pots. After 8 days cultivation (post-emergence) under controlled conditions in a glasshouse (at 24/16° C., day/night; 14 hours light; 65% humidity), the plants were sprayed with an aqueous spray solution derived from the formulation of the technical active ingredient in acetone/water (50:50) solution containing 0.5% Tween 20 (polyoxyethelyene sorbitan monolaurate, CAS RN 9005-64-5). The test plants were then grown in a glasshouse under controlled conditions in a glasshouse (at 24/16° C., day/night; 14 hours light; 65% humidity) and watered twice daily. After 13 days, the test was evaluated (10=total damage to plant; 0=no damage to plant).

[2] = system: Ipomea hederaceae
Method: as §1

[3] = system: Amaranthus retroflexus
Method: as §1

[4] = system: Setaria faberi
Method: as §1

[5] = system: Solanum nigrum
Method: as §1

Row | SMILES | ECHCG damage score (10=total damage to plant; 0=no damage to plant) [1] | IPOHE damage score (10=total damage to plant; 0=no damage to plant) [2] | AMARE damage score (10=total damage to plant; 0=no damage to plant) [3] | SETFA damage score (10=total damage to plant; 0=no damage to plant) [4] | SOLNI damage score (10=total damage to plant; 0=no damage to plant) [5]
1 | CCN1c2nccnc2C(O)=C(c2ccc(Cl)cc2C(F)(F)F)S1(=O)=O [Compound D10] | 4 | 9 | 9 | 2 | 10
2 | O=S1(=O)C(c2c(F)ccc(Cl)c2Cl)=C(O)c2nccnc2N1CC(F)F [Compound D9, 3-(2,3-dichloro-6-fluoro-phenyl)-1-(2,2-difluoro-ethyl)-2,2-dioxo-1,2-dihydro-2-λ-6-thia-1,5,8-triaza-naphthalen-4-ol] | 4 | 10 | 9 | 2 | 10
3 | CC(C)C(=O)OC1=C(c2cc(I)ccc2Cl)S(=O)(=O)N(CC(F)F)c2nccnc21 [Compound C54] | 3 | 8 | 6 | 2 | 8
4 | CC(C)C(=O)OC1=C(c2c(F)cccc2C(F)(F)F)S(=O)(=O)N(CC(F)F)c2nccnc21 [Compound C77] | 9 | 10 | 10 | 9 | 10
5 | CC(C)C(=O)OC1=C(c2cc(Cl)ccc2C(F)(F)F)S(=O)(=O)N(CC(F)F)c2nccnc21 [Compound C113] | 7 | 9 | 8 | 6 | 10
6 | CCN1c2nccnc2C(OC(=O)C(C)(C)C)=C(c2cc(Cl)ccc2C(F)(F)F)S1(=O)=O [Compound C108] | 3 | 3 | 4 | 2 | 7
7 | CCN1c2nccnc2C(OC(=O)C(C)(C)C)=C(c2c(F)cccc2C(F)(F)F)S1(=O)=O [Compound C43] | 5 | 5 | 5 | 3 | 6
8 | COc1ccc(F)c(C2=C(OC(=O)C(C)C)c3nccnc3N(CC(F)F)S2(=O)=O)c1 [Compound C138] | 1 | 2 | 0 | 0 | 7
9 | CC(C)C(=O)OC1=C(c2ccc(Cl)cc2Cl)S(=O)(=O)N(CCF)c2nccnc21 [Compound C58, isobutyric acid 3-(2,4-dichloro-phenyl)-1-(2-fluoroethyl)-2,2-dioxo-1,2-dihydro-2-λ-6-thia-1,5,8-triaza-naphthalen-4-yl ester] | 6 | 9 | 10 | 4 | 9
10 | O=S1(=O)C(c2c(Cl)cccc2C(F)(F)F)=C(O)c2nccnc2N1CC(F)F [Compound D11] | 8 | 9 | 10 | 8 | 10
11 | CCN1c2nccnc2C(OC(=O)C(C)(C)C)=C(c2c(F)ccc(Cl)c2Cl)S1(=O)=O [Compound C16] | 3 | 7 | 7 | 0 | 10
12 | CSC(=O)OC1=C(c2c(Cl)ccc(Cl)c2Cl)S(=O)(=O)N(CC(F)F)c2nccnc21 [Compound C130] | 8 | 10 | 10 | 7 | 10
13 | CCN1c2nccnc2C(OC(=O)C(C)C)=C(c2cccc(C(F)(F)F)c2Cl)S1(=O)=O [Compound C75] | 1 | 2 | 5 | 0 | 6
14 | CC(C)(C)C(=O)OC1=C(c2cc(Cl)ccc2C(F)(F)F)S(=O)(=O)N(CC(F)F)c2nccnc21 [Compound C111] | 6 | 9 | 8 | 6 | 9
15 | CCN1c2nccnc2C(O)=C(c2c(Cl)ccc(Cl)c2Cl)S1(=O)=O [Compound D36] | 6 | 10 | 10 | 2 | 10
16 | CC(C)(C)C(=O)OC1=C(c2ccc(Cl)cc2Cl)S(=O)(=O)N(CC(F)(F)F)c2nccnc21 [Compound C104] | 6 | 9 | 10 | 3 | 10
17 | O=C(OC1=C(c2c(Cl)ccc(Cl)c2Cl)S(=O)(=O)N(CC(F)F)c2nccnc21)Sc1ccccc1 [Compound C126] | 7 | 7 | 9 | 4 | 9
18 | CCSC(=O)OC1=C(c2c(Cl)ccc(Cl)c2Cl)S(=O)(=O)N(CC(F)F)c2nccnc21 [Compound C37] | 8 | 9 | 8 | 6 | 9
19 | CCSC(=O)OC1=C(c2c(Cl)ccc(Cl)c2Cl)S(=O)(=O)N(C)c2nccnc21 [Compound C94] | 6 | 9 | 6 | 2 | 9
20 | CC(C)C(=O)OC1=C(c2ccccc2OC(F)(F)F)S(=O)(=O)N(CC(F)F)c2nccnc21 [Compound C22] | 7 | 9 | 10 | 4 | 10
21 | CCSC(=O)OC1=C(c2cc(C(F)(F)F)ccc2Cl)S(=O)(=O)N(CC)c2nccnc21 [Compound C87] | 5 | 9 | 7 | 0 | 10
22 | CC(C)(C)C(=O)OC1=C(c2ccccc2C(F)(F)F)S(=O)(=O)N(CC(F)F)c2nccnc21 [Compound C62] | 4 | 8 | 7 | 6 | 6
23 | C=CCN1c2nccnc2C(O)=C(c2cc(Cl)ccc2C(F)(F)F)S1(=O)=O [Compound D54] | 3 | 4 | 2 | 3 | 7
24 | CC(C)C(=O)OC1=C(c2c(Cl)ccc(Cl)c2Cl)S(=O)(=O)N(C)c2nccnc21 [Compound C92] | 4 | 9 | 6 | 3 | 9
